Values of other authors, collected in patent publication US5374661A (Sano Corporation, priority 1993, dated 1994).

How the values were obtained:
[1] = oral

O=C(O)Cc1ccccc1Nc1c(Cl)cccc1Cl [Diclofenac]
less frequent side effects [1]: abdominal distension, flatulence and peptic ulcers with bleeding
most common gastrointestinal side effects [1]: nausea, vomiting, abdominal pain, dyspepsia and diarrhea
inhibition of cyclooxygenase pathway (in words) (cyclooxygenase): inhibits the cyclooxygenase pathway with subsequent reduction in prostaglandin and thromboxane production
inhibition of lipoxygenase pathway (in words) (lipoxygenase pathway): may inhibit the lipoxygenase pathway with subsequent reduction in leukotriene production
